Some results are limits rather than exact numbers.

The target in this assay is HPK1 (Homo sapiens (Human), UniProt Q92918). In words: HPK1 biochemical enzyme assay (microfluidic mobility shift assay). As to conditions: ATP 1 mM final concentration; 1.5 nM HPK1; 30 min preincubation; Caliper EZ Reader; read-out: HPK1 1000UMATP caliper IC50. The method, then:
HPK1 biochemical enzyme assay: HPK1 enzyme inhibition was measured using a microfluidic mobility shift assay. […] Test compounds were titrated in ten point curves (top final assay concentration 3 μM), and preincubated with enzyme/substrate mix for 30 min prior to initiation of the reaction by addition of ATP (1 mM final concentration) and substrate (1 μM final concentration; Carna Biosciences) diluted in assay buffer supplemented by MgCl2 (final assay concentration of 5 mM). Following 60 min incubation at RT, the reaction was terminated by addition of 60 μl/well termination buffer (Carna Biosciences) and signal determination using a Caliper EZ Reader (Perkin Elmer, UK).
The compound numbers correspond to the compound numbers in Table 1.

Sequence of HPK1 (Q92918 whole entry): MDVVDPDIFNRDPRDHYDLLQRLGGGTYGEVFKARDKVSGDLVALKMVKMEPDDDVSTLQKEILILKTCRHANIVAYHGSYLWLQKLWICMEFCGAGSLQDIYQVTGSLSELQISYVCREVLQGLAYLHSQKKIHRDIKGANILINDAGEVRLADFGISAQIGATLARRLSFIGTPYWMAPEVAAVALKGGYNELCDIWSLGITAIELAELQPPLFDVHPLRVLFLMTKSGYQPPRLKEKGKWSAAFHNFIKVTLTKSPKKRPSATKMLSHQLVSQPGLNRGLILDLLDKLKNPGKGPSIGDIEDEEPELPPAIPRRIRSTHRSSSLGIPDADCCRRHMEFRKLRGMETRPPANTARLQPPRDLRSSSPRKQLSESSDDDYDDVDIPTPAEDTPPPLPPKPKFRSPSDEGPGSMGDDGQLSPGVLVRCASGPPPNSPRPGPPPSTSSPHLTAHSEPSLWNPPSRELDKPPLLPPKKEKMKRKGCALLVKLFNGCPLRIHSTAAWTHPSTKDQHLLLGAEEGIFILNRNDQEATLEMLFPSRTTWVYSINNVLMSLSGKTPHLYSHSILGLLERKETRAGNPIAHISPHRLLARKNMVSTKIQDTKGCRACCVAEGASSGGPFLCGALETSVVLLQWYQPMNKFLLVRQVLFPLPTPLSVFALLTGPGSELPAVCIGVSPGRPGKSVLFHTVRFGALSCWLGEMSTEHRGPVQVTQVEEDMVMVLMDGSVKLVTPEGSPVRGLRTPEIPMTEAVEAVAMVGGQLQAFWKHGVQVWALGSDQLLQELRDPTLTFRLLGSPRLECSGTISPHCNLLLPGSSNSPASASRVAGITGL

By IC50 is commonly meant the concentration that gives 50% inhibition. Turning to “(R)-7-((5-(2- (methoxymeth- yl)morpholino) pyridin-2- yl)amino)-4- (7- methylimidazo [1,2- a]pyrimidin-3- yl)isoindolin- 1-one [I-628]”, the IC50 is under 100 nM.

Take `Cn1ccc2c(-c3ncc(Nc4ccc(N5CCOCC5)cn4)c4c3CNC4=O)cccc21` [I-221, 4-(1-methylindol-4-yl)-7-[(5-morpholino-2-pyridyl)amino]-2,3-dihydropy-rrolo[3,4-c]pyridin-1-one]: the IC50 is under 100 nM.

Consider `Cn1ccc2c(-c3ncc(Nc4ccc(N5CCC(O)CC5)cn4)c4c3CNC4=O)ccnc21` [I-139, 7-[[5-(4-hydroxy-1-piperidyl)-2-pyridyl]amino]-4-(1-methylpyrrolo [2,3-b]pyridin-4-yl)-2,3-dihydropy-rrolo[3,4-c]pyridin-1-one], for which the IC50 is under 100 nM.

Regarding `CC(C)(N)[C@H]1CN(c2ccc(Nc3ccc(-c4cnc5cc(F)ccn45)c4c3C(=O)NC4)nc2)CCO1` (single isomer, unassigned) [I-671], the IC50 was under 100 nM.

For `C[C@H](c1ccc(Nc2ccc(-c3cnc4cc(F)ccn34)c3c2C(=O)NC3)nc1)N(C)C` [I-521, (R)-7-((5-(1-(dimethylamino)-ethyl)pyridin-2-yl)amino)-4-(7-fluoroimidazo [1,2-a]pyridin-3-yl)isoindolin-1-one], the IC50 is under 100 nM.

On to `Cc1ccn2c(-c3ccc(Nc4ccc(N5CCOCC5)cn4)c4c3CNC4=O)cnc2c1` [I-145, 4-(7-methylimidazo [1,2-a]pyridin-3-yl)-7-[(5-morpholino-2-pyridyl)amino] isoindolin-1-one], for which the IC50 was under 100 nM.

Take `CN(C)Cc1nc(Nc2ccc(-c3cnc4cc(F)ccn34)c3c2C(=O)NC3)ccc1OCC(F)F` [I-835, 7-((5-(2,2-difluoroethoxy)-6-((dimethylamino)methyl)pyridin-2-yl)amino)-4-(7-fluoroimidazo[1,2-a]pyridin-3-yl)isoindolin-1-one]: the concentration for half-maximal inhibition (IC50) was under 100 nM.

For `CO[C@H]1CC[C@H](c2ccc(Nc3ccc(-c4cnc5cc(F)ccn45)c4c3C(=O)NC4)nc2CN(C)C)C1` [I-793, 7-((6-((dimethylamino)-methyl)-5-((1S,3S)-3-methoxycyclo-pentyl)pyridin-2-yl)amino)-4-(7-fluoroimidazo [1,2-a]pyridin-3-yl)isoindolin-1-one], the 50% inhibitory concentration (IC50) is under 100 nM.

For “7-((6-((dimethylamino)methyl)-4-(tetrahydrofuran-2-yl)pyridin-2-yl)amino)-4-(7-fluoroimidazo[1,2-a]pyridin-3-yl)isoindolin-1-one [I-852]”, the IC50 was under 100 nM.

`O=C1NCc2c(-c3cnc4cc(F)ccn34)ccc(Nc3ccc(N4CCO[C@@H](CNC5CC5)C4)cn3)c21` [I-495, 7-[[5-[(2S)-2-[(cyclopropyl-amino)methyl]morpholin-4-yl]-2-pyridyl]amino]-4-(7-fluoroimidazo [1,2-a]pyridin-3-yl)isoindolin-1-one]: the IC50 is under 100 nM.

The record behind these values is US11548890B1, “HPK1 antagonists and uses thereof” (Nimbus Saturn, Inc., priority 2019, dated 2023).
